Values joined by “and” are separate entries in the source; they are usually repeats but may differ in a detail not shown here. Equal values may be shown once.
Columns and labels:
[1] = test system: HT1080-non transcribing (CAG)850 cells; test: small-pool PCR repeat instability, HT1080-non transcribing (CAG)850 cells; type: cell-based, human; conditions: 50 uM NA, 30 days, repeat not transcribed
Description: The construction of the HT1080-(CAG)850 cell model was described previously (Sathasivam et al., 1997, Hum. Genet., 99:692-5). Briefly, HT1080 (ATCC) human fibrosarcoma cells were co-transfected with a plasmid (LC15-R) containing 800-850 (CTG)●(CAG) repeats (Nakatani et al., 2005, Nat. Chem. Biol., 1:39-43) and a plasmid encoding PhiC31 integrase. Transfection was performed with a Nucleofector (Lonza, Basel, Switzerland), and stably transfected clones were selected with puromycin. […] The HT1080-non-transcribing (CAG)850 cell model was established by transfecting a plasmid modified from pLC16 by inserting an additional SV40 polyadenylation signal downstream of the repeats (in addition to the original polyadenylation signals located upstream of the repeats), so that CAG/CTG repeats are floxed by transcription-terminator elements. The AttB-PhiC31 system has been widely used for single copy integration. […] The HT1080 model cells and an HD primary fibroblast cell line, GM09197 (Coriell Biorepository) with a large expanded allele of 180 CAG repeats and a non-expanded allele of 23 repeats (Sathasivam et al., 1997, Hum. Genet., 99:[…]), the HD primary fibroblast cell line, GM02191 (Coreill Biorepository) with an expanded allele of 43 CAG repeats and a non-expanded allele of 19 repeats, were cultured at 37° C. with 5% CO2 in Dulbecco's modified Eagle's medium supplemented with 10% fetal bovine serum and 1% penicillin/streptomycin. Cells were treated with or without continuous exposure to 50-μM NA for 30 days (HT1080 cells) or for 40 days (fibroblast cells). For experiments on non-proliferating cells, HT1080 cells were grown to confluence and then treated for the same period. WST-1 assay was performed according to the manufacturer's instructions (Roche, Basel, Switzerland). All cell lines were tested to be free of Mycoplasma. Three biological replicates were performed for each experiment.
Genomic DNA was extracted from HT1080-(CAG)850 clones and HD primary fibroblasts using the Gentra Puregene Cell Kit (Qiagen, Valencia, Calif.). The expanded (CTG)●(CAG) repeats were sized by small-pool PCR (sp-PCR) followed by Southern blot as described previously (Sathasivam et al., 1997, Hum. Genet., 99:692-5). For HT1080 models, small-pool PCR (spPCR) was performed with the input of 1.4-1.7 genome equivalents. The repeat size difference in the models is, at most, 3000 base-pairs, therefore, being strictly conservative, a bias toward amplifying the shorter allele can be possible, even under optimized PCR conditions described herein. For HD primary fibroblasts, sp-PCR & Southern blots were performed as described previously with slight modifications (Tome et al., 2013, PLoS Genet., 9:e1003280). Briefly, the PCR primers listed in Table 1 were used, and blots were hybridized with a DIG-labeled (CAG)7 locked nucleic acid probe (Nakamori et al. 2009, Neuromuscul. Disord., 19:759-62). At least 50 alleles were analyzed for each of the three experiments (more than 150 alleles for a total study). Repeat analyses are summarized in Table 2, compiled from complete small-pool-PCR datasets for each repetition of each experiment. For the histograms in FIGS. 4D, 4E, 10, 11, 5B, 5D, 5E, 14 and 15B, the Y-axis, “% of repeat population” was calculated by determining the proportion of >50 individual small-pool PCR reactions across the CAG repeat tract, that harbored a certain size of repeat product with a certain length. Cell clones were grown 30 or 40 days with or without NA (see, for example, Sathasivam et al., 1997, Hum. Genet., 99:692-5). Specifically, the histograms of repeat length distributions were from at least two different cell clones. Length distributions were determined as follows: Small-pool PCR followed by Southern blot for analysis of CAG/CTG repeat length.

[2] = test system: Mapkap1 and Fgd4 loci in striatum from R6/2 mouse; test: repeat-tract lengths of non-expanded loci in R6/2 striatum; type: in vivo; conditions: four injections, both sides of striatum
[3] = single experiments Ex 1-3, cut-off ±25 repeats

Question: naphthyridine-azaquinolone was tested. Which “% Contraction” value ([1]; Total) did it give?
Answer: The value was 21.8%.

Question: What about the “% Expansion” value ([1]; Total) of the same substance?
Answer: The value was 12.1%.

Question: And the “% Unchanged” value ([1]; Total)?
Answer: The value was 66.1%.

Question: What about the “Average Change of Repeat Size” value ([1]; Total) of the same substance?
Answer: Its value is −55.9 number of repeats.

Question: What about the “% Unchanged” value ([1]; single experiments Ex 1-3) of the same substance?
Answer: The value was 66.7% and 62.5% and 69.1%.

Question: And the “% Contraction” value [1, 3]?
Answer: The value was 22.2% and 21.4% and 21.8%.

Question: What about the “% Expansion” value [1, 3] of the same substance?
Answer: Its value is 11.1% and 16.1% and 9.1%.

Question: And the “length variation at Mapkap1 and Fgd4 loci” value [2]?
Answer: Its value is “Length variation was not observed”.

Source: patent US11672786B2, “Methods of treating diseases associated with repeat instability” (The Hospital for Sick Children, priority 2016, dated 2023)
